# Test results published in patent publication US7923461B2, “TNF-α production inhibitors” (Santen Pharmaceutical Co., Ltd., priority 2000, dated 2011).
# Where a name gives a salt, the structure may show the parent alone.
# Test system: TNF-α production
# Assay: Inhibitory effects on TNF-α production induced by lipopolysaccharide (LPS) stimulation, in vivo test
# Design: species or system rat
# Conditions: female rats, plasma TNF-α (ELISA) two hours after LPS; for inhibition in vivo at 10 mg/kg / inhibition in vivo at 3 mg/kg: Rattus norvegicus, 2 h, read-out: Inhibition rate (%) of TNF-α production; for inhibition in vivo at 10 mg/kg: oral administration of 10 mg/kg immediately after LPS to footpad; for Inhibition rate (%) of TNF-α production / inhibition in vivo at 3 mg/kg: oral administration of 3 mg/kg immediately after LPS to footpad
# Procedure: Inhibitory effects on TNF-α production induced by lipopolysaccharide (LPS) stimulation were studied by in vivo tests according to the method of Tsuji et al. (Inflamm res. 46 (1997) 193-198).
# Female rats (five per group), body weight of about 200 g, about eight weeks old, were used as test animals. LPS from Salmonella was dissolved in physiological saline to prepare an LPS solution (1 mg/ml). Each test substance was dissolved or uniformly suspended in a 1% methylcellulose solution to give test substance-preparation liquids.
# The above-mentioned LPS solution (0.5 ml/kg) was administered to a footpad of the rat. Immediately after the LPS administration, the test substance-preparation liquid (containing 10 mg/kg or 3 mg/kg test substance) was orally administered. Two hours after the LPS administration, blood was collected from abdominal aorta and was centrifuged at 4° C. and 3000 rpm for ten minutes. TNF-α levels in the obtained plasma were measured with a rat TNF-α-specific ELISA kit. TNF-α was not observed in the plasma with respect to an LPS-non-administered group (control).
# Inhibition rates of TNF-α production of the test substances were determined by the following equation. Inhibition rate (%)=[(A−B)/A]×100 A: TNF-α level in plasma of test substance-nonadministered group B: TNF-α level in plasma of test substance-administered group (Results)
Structure (SMILES),inhibition in vivo at 10 mg/kg [%],inhibition in vivo at 3 mg/kg [%],other results
"CN(CCCc1ccncc1)C(=O)N(C)CCC12CC3CC(CC(C3)C1)C2 [Compound No. 11-1, [2-(1-Adamantyl)ethyl]-1,3-dimethyl-3-[3-(4-pyridyl)propyl]urea]",50.8,,
"CCCCCN(CCC1CCCCC1)C(=O)CCCCc1ccncc1 [Compound No. 2-11, 5-(4-Pyridyl)valeric acid N-(2-cyclohexylethyl)-NY-pentylamide]",,,Inhibition rate (%) of TNF-α production: 53.5%
"C=CCCCCCCN(CCCCCCC=C)C(=O)NCCCc1ccncc1 [Compound No. 1-95, 1,1-Di(7-octenyl)-3-[3-(4-pyridyl)propyl]urea]",,70.8,
"CCCN(CCCC12CC3CC(CC(C3)C1)C2)C(=O)NCCCc1ccncc1 [Compound No. 1-35, 1-[3-(1-Adamantyl)propyl]-1-propyl-3-[3-(4-pyridyl)propyl]urea]",82.5,,
"CCCCCN(CCN(C)C(=O)OCc1ccccc1)C(=O)NCCCc1ccncc1 [Compound No. 1-78, [2-(N-Benzyloxycarbonyl-N-methylamino)ethyl]-1-pentyl-3-[3-(4-pyridyl)propyl]urea]",,,Inhibition rate (%) of TNF-α production: 61.5%
"O=C(OCCCc1ccncc1)N(CCC(F)(F)F)CCC12CC3CC(CC(C3)C1)C2 [Compound No. 5-4, 3-(4-Pyridyl)propyl N-[2-(1-adamantyl)ethyl]-N-(3,3,3-trifluoropropyl)carbamate]",,62.6,
"CCCN(CCCC12CC3CC(CC(C3)C1)C2)C(=O)OCCCc1ccncc1 [Compound No. 5-3, 3-(4-Pyridyl)propyl N [3-(1-adamantyl)propyl]-N-propylcarbamate]",,,Inhibition rate (%) of TNF-α production: 49.4%
"CCCCCN(CCc1ccccc1)C(=O)CCCCc1ccncc1 [Compound No. 2-9, 5-(4-Pyridyl)valeric acid N-pentyl-N-phenethylamide]",,84.5,
"CN(CCN(CCC12CC3CC(CC(C3)C1)C2)C(=O)CCCCc1ccncc1)C(=O)OC(C)(C)C [Compound No. 2-7, 5-(4-Pyridyl)valeric acid N-[2-(1-adamantyl)ethyl]-N-[2-[N-(tbutoxycarbonyl)-N′-methylamino]ethyl]amide]",,,Inhibition rate (%) of TNF-α production: 78.7%
"N#CCN(CCC12CC3CC(CC(C3)C1)C2)C(=O)NCCCc1ccncc1 [Compound No. 1-20, 1-[2-(1-Adamantyl)ethyl]-1-cyanomethyl-3-[3-(4-pyridyl)propyl]urea]",60,,
"O=C1CCN(CCC23CC4CC(CC(C4)C2)C3)C(=O)N1CCCc1ccncc1 [Compound No. 6-1, 1-[2-(1-Adamantyl)ethyl]-3-[3-(4-pyridyl)propyl]hexahydro-2,4-pyrimidinedione hydrochloride]",50.5,,
"CCCCCN(CCC12CC3CC(CC(C3)C1)C2)C(=O)COCCc1ccncc1 [Compound No. 18-3, 2-[2-(4-Pyridyl)ethoxy]acetic acid N-[2-(1-adamantyl)ethyl]-N-pentylamide]",,56.6,
"CCCCCN(CC12CC3CC(CC(C3)C1)C2)C(=O)CCCCc1ccncc1 [Compound No. 2-3, 5-(4-Pyridyl)valeric acid N-(1-adamantyl)methyl-N-pentylamide]",51.8,,
"CCCCCN(CCC12CC3CC(CC(C3)C1)C2)C(=O)NCCC(O)c1ccncc1 (stereo not drawn) [Compound No. 14-1, 1-[2-(1-Adamantyl)ethyl]-3-[3-hydroxy-3-(4-pyridyl)propyl]-1-pentylurea]",,36.3,
"CCCCCN(CCC12CC3CC(CC(C3)C1)C2)C(=O)NCC(C)Cc1ccncc1 (single isomer, unassigned; (-)) [Compound No. 1-120, (−)-1-[2-(1-Adamantyl)ethyl]-3-[2-methyl-3-(4-pyridyl)propyl]-1-pentylurea]",95.1,,
"CCCCCN(CCC12CC3CC(CC(C3)C1)C2)C(=O)NC[C@@H]1C[C@@H]1c1ccncc1 (relative stereo) [Compound No. 15-1, cis 1-[2-(1-Adamantyl)ethyl]-1-pentyl-3-[2-(4-pyridyl)cyclopropylmethyl]urea]",,73.8,
"CCCCCN(CCC12CC3CC(CC(C3)C1)C2)C(=O)CNCCc1ccncc1 [Compound No. 18-1, 2-[2-(4-Pyridyl)ethylamino]acetic acid N-[2-(1-adamantyl)ethyl]1-N-pentylamide]",,,Inhibition rate (%) of TNF-α production: 55.7%
"CCCCCN(CCC12CC3CC(CC(C3)C1)C2)C(=O)C(N)CSCc1ccncc1 (stereo not drawn) [Compound No. 3-4, 2-Amino-3-(4-pyridylmethylthio)propionic acid N-[2-(1-adamantyl)ethyl]-N-pentylamide dihydrochloride]",,76.1,

Structure (SMILES),inhibition in vivo at 10 mg/kg [%],inhibition in vivo at 3 mg/kg [%],other results
"CCCCCN(CCC1CCCCC1)C(=O)NCCCc1ccncc1 [Compound No. 1-44, 1-(2-Cyclohexylethyl)-1-pentyl-3-[3-(4-pyridyl)propyl]urea]",93.7,,
"CCCCCN(CCC12CC3CC(CC(C3)C1)C2)C(=O)NCCC(=O)c1ccncc1 [Compound No. 31-1, 1-[2-(1-Adamantyl)ethyl]-3-[3-oxo-3-(4-pyridyl)propyl]-1-pentylurea]",,46.8,
"CCCCCN(CCC12CC3CC(CC(C3)C1)C2)C(=O)NCCCc1ccnc(C)c1 [Compound No. 27-1, 1-[2-(1-Adamantyl)ethyl]-3-[3-[4-(2-methyl)pyridyl]propyl]-1-pentylurea]",,,Inhibition rate (%) of TNF-α production: 68.6%
"O=C(NCCCc1ccncc1)N(CCC12CC3CC(CC(C3)C1)C2)OCc1ccccc1 [Compound No. 1-28, 1-[2-(1-Adamantyl)ethyl]-1-benzyloxy-3-[3-(4-pyridyl)propyl]urea]",90.4,,
"CCCCCN(CCC12CC3CC(CC(C3)C1)C2)C(=O)NCCCc1ccncc1 [Compound No. 1-1, 1-[2-(1-Adamantyl)ethyl]-1-pentyl-3-[3-(4-pyridyl)propyl]urea]",92.1,,
"CCCCCN(CCC12CC3CC(CC(C3)C1)C2)C(=O)CCCCCc1ccncc1 [Compound No. 2-20, 6-(4-Pyridyl)caproic acid N-[2-(1-adamantyl)ethyl]-N-pentylamide]",,82.1,
"CN(CCN(CCC12CC3CC(CC(C3)C1)C2)C(=O)CCCCc1ccncc1)C(=O)OCc1ccccc1 [Compound No. 10-16, 5-(4-Pyridyl)valeric acid N-[2-(1-adamantyl)ethyl]-N-[2-(N′-benzyloxycarbonyl-N′-methylamino)ethyl]amide]",,,Inhibition rate (%) of TNF-α production: 62.8%
"CCCCCN(CCc1ccccc1)C(=O)NCCCc1ccncc1 [Compound No. 1-45, 1-Pentyl-1-phenethyl-3-[3-(4-pyridyl)propyl]urea]",91.1,,
"CCCCCN(CCC12CC3CC(CC(C3)C1)C2)C(=O)CCCCc1ccncc1 [Compound No. 2-14, 5-(4-Pyridyl)valeric acid N-[2-(1-adamantyl)ethyl]-N-pentylamide]",,87.3,
"CCCCCN(CCC12CC3CC(CC(C3)C1)C2)C(=S)NCCCc1ccncc1 [Compound No. 7-1, 1-[2-(1-Adamantyl)ethyl]-1-pentyl-3-[3-(4-pyridyl)propyl]thiourea]",71.5,,
"Cc1nc(CN(CCC23CC4CC(CC(C4)C2)C3)C(=O)NCCCc2ccncc2)cs1 [Compound No. 1-37, 1-[2-(1-Adamantyl)ethyl]-1-(2-methylthiazol-4-yl)methyl-3-[3-(4-pyridyl)propyl]urea]",84.3,,
"CCCCCN(CCC12CC3CC(CC(C3)C1)C2)C(=O)OCC(C)Cc1ccncc1 (stereo not drawn) [Compound No. 5-6, 2-Methyl-3-(4-pyridyl)propyl N-[2-(1-adamantyl)ethyl]-N-pentylcarbamate]",,41.7,
"CCCCCN(CCc1ccccn1)C(=O)NCCCc1ccncc1 [Compound No. 1-55, 1-Pentyl-1-[2-(2-pyridyl)ethyl]-3-[3-(4-pyridyl)propyl]urea]",78.1,,
"CCCCCN(CCC12CC3CC(CC(C3)C1)C2)C(=O)CSCCc1ccncc1 [Compound No. 2-18, 2-[2-(4-Pyridyl)ethylthio]acetic acid N-[2-(1-adamantyl)ethyl]-N-pentylamide]",,87.3,
"CCCCCN(CCC12CC3CC(CC(C3)C1)C2)C(=O)NCCCc1cc[n+](C)cc1 [Compound No. 4-1, 4-[3-[3-[2-(1-Adamantyl)ethyl]-3-pentylureido]propyl]-1-methylpyridinium iodide]",,42.8,
"CCCCCN(CCCCC)C(=O)NCCCc1ccncc1 [Compound No. 1-38, 1,1-Dipentyl-3-[3-(4-pyridyl)propyl]urea]",92.3,,
"CCCCCN(CCC12CC3CC(CC(C3)C1)C2)C(=O)CCSCc1ccncc1 [Compound No. 2-15, 3-(4-Pyridylmethylthio)propionic acid N-[2-(1-adamantyl)ethyl]-N-pentylamide]",,68.1,
"CN(CCN(CCC12CC3CC(CC(C3)C1)C2)C(=O)OCCCc1ccncc1)C(=O)OC(C)(C)C [Compound No. 5-5, 3-(4-Pyridyl)propyl N-[2-(1-adamantyl)ethyl]-N-[2-[N′-(tbutoxycarbonyl)-N′-methylamino]ethyl]carbamate]",,,Inhibition rate (%) of TNF-α production: 42.8%
